Data on 2 compounds can be found in ChEMBL document CHEMBL1139995, “SAR of the arylpiperazine moiety of obeline somatostatin sst1 receptor antagonists” (Bioorg Med Chem Lett, 2007).

The test system of data set [1] is Rattus norvegicus. As to the kind of experiment: Volume of distribution at steady state in rat at 10 mg/kg, po. In kind it is ADME, organism-based. More on the design: dose 10 mg/kg, route oral. To be noted: in vivo.
The species entered for data set [2] is Rattus norvegicus. As to the kind of experiment: Selectivity for rat sst1 receptor over rat sst2 receptor.
A short description of data set [3]: Oral bioavailability in rat at 10 mg/kg. To be noted: in vivo. In kind it is ADME, organism-based.
Data set [4] in a line: Ratio of drug level in brain to plasma in rat at 10 to 100 mg/kg, po after 90 mins. In kind it is ADME, organism-based. More on the design: dose 10-100 mg/kg, route oral. The note with it: brain and plasma, read-out: BPR.
Data set [5] in a line: Clearance in rat at 10 mg/kg, po. The note with it: in vivo. Further details: dose 10 mg/kg, route oral. In kind it is ADME, organism-based.
The target of data set [6] is Somatostatin receptor type 2 (Rattus norvegicus, UniProt P30680). As to the kind of experiment: Displacement of [125I]SRIF14 from rat sst2 receptor from rat brain cortex membrane. In general terms: Displacement assays read how much labelled ligand stays bound in the presence of the test substance.
For data set [7], the target named is Somatostatin receptor type 1 (Rattus norvegicus, UniProt P28646). Put plainly: Displacement of [125I]SRIF14 from rat sst1 receptor from rat brain cortex membrane.
Data set [8] can be described thus: Ratio of drug level in brain to plasma in mouse at 10 mg/kg, po after 1 hr. In kind it is ADME, organism-based. Further details: dose 10 mg/kg, route oral. The note with it: brain and plasma, read-out: BPR.

Sequence of Somatostatin receptor type 1 (P28646 whole entry): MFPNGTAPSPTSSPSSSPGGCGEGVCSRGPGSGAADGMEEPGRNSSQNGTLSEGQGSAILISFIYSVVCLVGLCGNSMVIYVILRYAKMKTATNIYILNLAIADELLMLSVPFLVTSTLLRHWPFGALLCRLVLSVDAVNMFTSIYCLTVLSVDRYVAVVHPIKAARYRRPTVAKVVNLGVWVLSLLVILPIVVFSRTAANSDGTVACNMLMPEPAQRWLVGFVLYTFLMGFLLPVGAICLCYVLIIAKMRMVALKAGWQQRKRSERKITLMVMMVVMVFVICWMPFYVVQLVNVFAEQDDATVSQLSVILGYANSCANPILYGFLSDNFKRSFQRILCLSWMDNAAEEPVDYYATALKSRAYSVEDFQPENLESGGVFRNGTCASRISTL
Sequence of Somatostatin receptor type 2 (P30680 whole entry): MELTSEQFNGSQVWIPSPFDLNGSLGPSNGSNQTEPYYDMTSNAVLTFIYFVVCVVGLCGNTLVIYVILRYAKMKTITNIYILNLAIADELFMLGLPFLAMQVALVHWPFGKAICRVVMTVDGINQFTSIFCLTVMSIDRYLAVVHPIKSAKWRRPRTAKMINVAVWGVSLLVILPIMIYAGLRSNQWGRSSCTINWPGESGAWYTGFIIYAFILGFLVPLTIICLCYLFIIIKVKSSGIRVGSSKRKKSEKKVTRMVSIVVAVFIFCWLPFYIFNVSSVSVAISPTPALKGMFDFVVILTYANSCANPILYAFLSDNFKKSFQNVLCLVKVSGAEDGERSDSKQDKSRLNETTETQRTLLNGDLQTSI

As for `COc1cccc2c1C[C@H]1C[C@@H](C(=O)N3CCN(c4ccc([N+](=O)[O-])cc4)CC3)CN(C)[C@@H]1C2` [OBELIN], the Vdss in the data set with Rattus norvegicus [1] turned out to be 3 L/kg. Moreover, the Selectivity ratio in the data set filed under Rattus norvegicus [2] is over 10000. In data set [3], the bioavailability (commonly dose-corrected exposure relative to a reference, in per cent) came out at 35%. Moreover, in data set [4], the Kp at 1.5 h is 10. Moreover, in data set [5], the CL/F – broadly, clearance divided by bioavailability, as obtained after extravascular dosing – amounted to 5 mL/min. In addition, the equilibrium dissociation constant (Kd) (usually the equilibrium constant for the complex coming apart) is 7.76 µM in data set [6] and 0.000708 µM in data set [7].

On to `COc1cccc2c1C[C@H]1C[C@@H](C(=O)N3CCN(c4ccc(F)c(F)c4)CC3)CN(C)[C@@H]1C2`, for which, in data set [8], the Kp at 1 h worked out at 7.5. Further, the Selectivity ratio in the data set filed under Rattus norvegicus [2] is over 22000. Besides, the values for the Kd in data set [6] and in data set [7] were 16.6 µM and 0.000741 µM, respectively.
